PubChem BioAssay AID272 (DTP/NCI, 2004)
Several values for one entry are separate records, joined by “and”; a condition that tells them apart may be missing. Equal values may be shown once. Inconclusive results are not listed.

Test system: Lewis lung carcinoma i.m., BDF1 mice, T/C %
Assay: NCI In Vivo Anticancer Drug Screen. Data for tumor model Lewis Lung Carcinoma (intramuscular) in B6D2F1 (BDF1) mice
In short: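 Mice carrying transplantable tumours received test compound. Survival or tumour size was recorded and expressed as the treated-group value (T) divided by the vehicle-treated control-group value (C).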

## CCCCCCCCCCCCCCCCCC[n+]1cccc(C(=O)N2CCOCC2)c1
endpoint: mean tumor weight (est.), dose: 2.0 mg/kg/injection, schedule: Q01DX011 (ip), vehicle: saline, higher = larger tumour
  T/C: 82 % of control
endpoint: mean tumor weight (est.), dose: 4.0 mg/kg/injection, schedule: Q01DX011 (ip), vehicle: saline, higher = larger tumour
  T/C: 83 % of control
endpoint: mean tumor weight (est.), dose: 8.0 mg/kg/injection, schedule: Q01DX011 (ip), vehicle: saline, higher = larger tumour
  T/C: 71 % of control
endpoint: mean tumor weight (est.), dose: 16.0 mg/kg/injection, schedule: Q01DX011 (ip), vehicle: saline, higher = larger tumour
  T/C: 64 % of control
endpoint: median survival time, dose: 2.0 mg/kg/injection, schedule: Q01DX011 (ip), vehicle: saline, higher = longer survival
  T/C: 101 % of control
endpoint: median survival time, dose: 4.0 mg/kg/injection, schedule: Q01DX011 (ip), vehicle: saline, higher = longer survival
  T/C: 103 % of control
endpoint: median survival time, dose: 8.0 mg/kg/injection, schedule: Q01DX011 (ip), vehicle: saline, higher = longer survival
  T/C: 105 % of control
endpoint: median survival time, dose: 16.0 mg/kg/injection, schedule: Q01DX011 (ip), vehicle: saline, higher = longer survival
  T/C: 94 % of control

## C1CN1c1nc(N2CC2)nc(N2CC2)n1
endpoint: mean tumor weight (est.), dose: 0.06 mg/kg/injection, schedule: Q01DX011 (ip), vehicle: saline, higher = larger tumour
  T/C: 78 % of control
endpoint: mean tumor weight (est.), dose: 0.12 mg/kg/injection, schedule: Q01DX011 (ip), vehicle: saline, higher = larger tumour
  T/C: 67 % of control
endpoint: mean tumor weight (est.), dose: 0.25 mg/kg/injection, schedule: Q01DX011 (ip), vehicle: saline, higher = larger tumour
  T/C: 37 % of control
endpoint: mean tumor weight (est.), dose: 0.5 mg/kg/injection, schedule: Q01DX011 (ip), vehicle: saline, higher = larger tumour
  T/C: 37 % of control
endpoint: mean tumor weight, dose: 0.12 mg/kg/injection, schedule: Q01DX011 (ip), vehicle: saline, higher = larger tumour
  T/C: 73 % of control
endpoint: mean tumor weight, dose: 0.25 mg/kg/injection, schedule: Q01DX011 (ip), vehicle: saline, higher = larger tumour
  T/C: 73 % of control
endpoint: median survival time, dose: 0.06 mg/kg/injection, schedule: Q01DX011 (ip), vehicle: saline, higher = longer survival
  T/C: 97 % of control
endpoint: median survival time, dose: 0.1 mg/kg/injection, schedule: Q01DX011 (ip), vehicle: saline, higher = longer survival
  T/C: 116 % of control
endpoint: median survival time, dose: 0.12 mg/kg/injection, schedule: Q01DX011 (ip), vehicle: saline, higher = longer survival
  T/C: 100 % of control and 106 % of control
endpoint: median survival time, dose: 0.2 mg/kg/injection, schedule: Q01DX011 (ip), vehicle: saline, higher = longer survival
  T/C: 106 % of control
endpoint: median survival time, dose: 0.25 mg/kg/injection, schedule: Q01DX011 (ip), vehicle: saline, higher = longer survival
  T/C: 110 % of control
endpoint: median survival time, dose: 0.4 mg/kg/injection, schedule: Q01DX011 (ip), vehicle: saline, higher = longer survival
  T/C: 89 % of control
endpoint: median survival time, dose: 0.5 mg/kg/injection, schedule: Q01DX011 (ip), vehicle: saline, higher = longer survival
  T/C: 122 % of control

## OC(CBr)C(O)C(O)C(O)CBr (stereo unspecified)
endpoint: mean tumor weight (est.), dose: 50.0 mg/kg/injection, schedule: Q01DX011 (ip), vehicle: Klucel (hydroxypropylcellulose) (HPC), higher = larger tumour
  T/C: 61 % of control
endpoint: mean tumor weight (est.), dose: 100.0 mg/kg/injection, schedule: Q01DX011 (ip), vehicle: Klucel (hydroxypropylcellulose) (HPC), higher = larger tumour
  T/C: 59 % of control
endpoint: mean tumor weight (est.), dose: 200.0 mg/kg/injection, schedule: Q01DX011 (ip), vehicle: Klucel (hydroxypropylcellulose) (HPC), higher = larger tumour
  T/C: 44 % of control
endpoint: mean tumor weight, dose: 25.0 mg/kg/injection, schedule: Q01DX011 (ip), vehicle: Klucel (hydroxypropylcellulose) (HPC), higher = larger tumour
  T/C: 85 % of control
endpoint: mean tumor weight, dose: 50.0 mg/kg/injection, schedule: Q01DX011 (ip), vehicle: Klucel (hydroxypropylcellulose) (HPC), higher = larger tumour
  T/C: 70 % of control
endpoint: mean tumor weight, dose: 100.0 mg/kg/injection, schedule: Q01DX011 (ip), vehicle: Klucel (hydroxypropylcellulose) (HPC), higher = larger tumour
  T/C: 93 % of control
endpoint: mean tumor weight, dose: 125.0 mg/kg/injection, schedule: Q01DX011 (ip), vehicle: Klucel (hydroxypropylcellulose) (HPC), higher = larger tumour
  T/C: 101 % of control
endpoint: mean tumor weight, dose: 200.0 mg/kg/injection, schedule: Q01DX011 (ip), vehicle: Klucel (hydroxypropylcellulose) (HPC), higher = larger tumour
  T/C: 72 % of control
endpoint: mean tumor weight, dose: 250.0 mg/kg/injection, schedule: Q01DX011 (ip), vehicle: Klucel (hydroxypropylcellulose) (HPC), higher = larger tumour
  T/C: 100 % of control
endpoint: mean tumor weight, dose: 400.0 mg/kg/injection, schedule: Q01DX011 (ip), vehicle: Klucel (hydroxypropylcellulose) (HPC), higher = larger tumour
  T/C: 55 % of control
endpoint: median survival time, dose: 25.0 mg/kg/injection, schedule: Q01DX011 (ip), vehicle: Klucel (hydroxypropylcellulose) (HPC), higher = longer survival
  T/C: 94 % of control
endpoint: median survival time, dose: 50.0 mg/kg/injection, schedule: Q01DX011 (ip), vehicle: Klucel (hydroxypropylcellulose) (HPC), higher = longer survival
  T/C: 111 % of control
endpoint: median survival time, dose: 125.0 mg/kg/injection, schedule: Q01DX011 (ip), vehicle: Klucel (hydroxypropylcellulose) (HPC), higher = longer survival
  T/C: 93 % of control
endpoint: median survival time, dose: 200.0 mg/kg/injection, schedule: Q01DX011 (ip), vehicle: Klucel (hydroxypropylcellulose) (HPC), higher = longer survival
  T/C: 97 % of control and 112 % of control
endpoint: median survival time, dose: 250.0 mg/kg/injection, schedule: Q01DX011 (ip), vehicle: Klucel (hydroxypropylcellulose) (HPC), higher = longer survival
  T/C: 100 % of control
endpoint: median survival time, dose: 400.0 mg/kg/injection, schedule: Q01DX011 (ip), vehicle: Klucel (hydroxypropylcellulose) (HPC), higher = longer survival
  T/C: 94 % of control

## CO[C@H]1/C=C/O[C@@]2(C)Oc3c(C)c(O)c4c(O)c(c(/C=N/N5C(C)CN(Cc6ccccc6)CC5C)c(O)c4c3C2=O)NC(=O)/C(C)=C\C=C\[C@H](C)[C@H](O)[C@@H](C)[C@@H](O)[C@@H](C)[C@H](OC(C)=O)[C@@H]1C (stereo partly specified)
endpoint: median survival time, dose: 25.0 mg/kg/injection, schedule: Q02DX009 (ip), vehicle: other, higher = longer survival
  T/C: 117 % of control
endpoint: median survival time, dose: 50.0 mg/kg/injection, schedule: Q02DX009 (ip), vehicle: Klucel (hydroxypropylcellulose) (HPC), higher = longer survival
  T/C: 114 % of control
endpoint: median survival time, dose: 50.0 mg/kg/injection, schedule: Q02DX009 (ip), vehicle: other, higher = longer survival
  T/C: 107 % of control
endpoint: median survival time, dose: 200.0 mg/kg/injection, schedule: Q02DX009 (ip), vehicle: Klucel (hydroxypropylcellulose) (HPC), higher = longer survival
  T/C: 98 % of control
endpoint: median survival time, dose: 200.0 mg/kg/injection, schedule: Q02DX009 (ip), vehicle: other, higher = longer survival
  T/C: 87 % of control
endpoint: median survival time, dose: 400.0 mg/kg/injection, schedule: Q02DX009 (ip), vehicle: Klucel (hydroxypropylcellulose) (HPC), higher = longer survival
  T/C: 98 % of control

## CS(=O)(=O)OCCCNCCCOS(C)(=O)=O
endpoint: median survival time, dose: 10.0 mg/kg/injection, schedule: Q01DX011 (ip), vehicle: saline, higher = longer survival
  T/C: 110 % of control and 113 % of control and 119 % of control
endpoint: median survival time, dose: 20.0 mg/kg/injection, schedule: Q01DX011 (ip), vehicle: saline, higher = longer survival
  T/C: 109 % of control
endpoint: median survival time, dose: 40.0 mg/kg/injection, schedule: Q01DX011 (ip), vehicle: saline, higher = longer survival
  T/C: 92 % of control and 107 % of control

## CCCCC/C(C)=N\Nc1ccccn1
endpoint: mean tumor weight (est.), dose: 12.5 mg/kg/injection, schedule: Q01DX011 (ip), vehicle: saline with Tween-80, higher = larger tumour
  T/C: 91 % of control
endpoint: mean tumor weight (est.), dose: 25.0 mg/kg/injection, schedule: Q01DX011 (ip), vehicle: saline with Tween-80, higher = larger tumour
  T/C: 88 % of control
endpoint: mean tumor weight (est.), dose: 50.0 mg/kg/injection, schedule: Q01DX011 (ip), vehicle: saline with Tween-80, higher = larger tumour
  T/C: 80 % of control
endpoint: median survival time, dose: 25.0 mg/kg/injection, schedule: Q01DX011 (ip), vehicle: saline with Tween-80, higher = longer survival
  T/C: 98 % of control
endpoint: median survival time, dose: 50.0 mg/kg/injection, schedule: Q01DX011 (ip), vehicle: saline with Tween-80, higher = longer survival
  T/C: 98 % of control
